From ChEMBL document CHEMBL5465560, “Selectivity Literature for EUbOPEN Chemogenomic Library” (2024)

Experiments:
[1] = target: Dual specificity mitogen-activated protein kinase kinase 1 (Homo sapiens, UniProt Q02750)
[2] = target: T1, Serine/threonine-protein kinase TBK1 (Homo sapiens) (UniProt Q9UHD2); experiment: Selectivity interaction (ActivX KiNativ screen (kinase selectivity in THP-1 cell lysates)) EUB0000639a TBK1; assay type: subcellular; conditions: lysate, at 0.01 µM
T1 sequence (whole entry): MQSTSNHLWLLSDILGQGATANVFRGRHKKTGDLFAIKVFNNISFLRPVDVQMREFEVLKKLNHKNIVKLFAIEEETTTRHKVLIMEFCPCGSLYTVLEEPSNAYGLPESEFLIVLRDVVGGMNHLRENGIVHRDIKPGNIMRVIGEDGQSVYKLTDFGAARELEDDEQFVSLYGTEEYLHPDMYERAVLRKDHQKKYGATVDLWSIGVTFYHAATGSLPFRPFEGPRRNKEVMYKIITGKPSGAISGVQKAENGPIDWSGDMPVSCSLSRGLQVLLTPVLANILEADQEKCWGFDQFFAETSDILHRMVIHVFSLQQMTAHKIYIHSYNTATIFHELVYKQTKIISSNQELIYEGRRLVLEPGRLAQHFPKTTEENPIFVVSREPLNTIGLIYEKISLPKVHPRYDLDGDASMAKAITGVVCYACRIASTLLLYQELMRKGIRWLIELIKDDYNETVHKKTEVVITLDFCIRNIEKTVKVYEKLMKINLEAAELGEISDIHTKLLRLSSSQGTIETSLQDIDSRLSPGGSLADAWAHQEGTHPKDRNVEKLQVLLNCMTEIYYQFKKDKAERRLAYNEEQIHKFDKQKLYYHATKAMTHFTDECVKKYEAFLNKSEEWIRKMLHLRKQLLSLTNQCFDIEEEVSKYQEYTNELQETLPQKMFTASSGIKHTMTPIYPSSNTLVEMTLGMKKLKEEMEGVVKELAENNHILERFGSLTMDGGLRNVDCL

[3] = target: T2, Cyclin-dependent kinase-like 5 (Homo sapiens) (UniProt O76039); experiment: Selectivity interaction (KinomeScan (DiscoverX)) EUB0001049a CDKL5; conditions: at 1 µM
T2 sequence (whole entry): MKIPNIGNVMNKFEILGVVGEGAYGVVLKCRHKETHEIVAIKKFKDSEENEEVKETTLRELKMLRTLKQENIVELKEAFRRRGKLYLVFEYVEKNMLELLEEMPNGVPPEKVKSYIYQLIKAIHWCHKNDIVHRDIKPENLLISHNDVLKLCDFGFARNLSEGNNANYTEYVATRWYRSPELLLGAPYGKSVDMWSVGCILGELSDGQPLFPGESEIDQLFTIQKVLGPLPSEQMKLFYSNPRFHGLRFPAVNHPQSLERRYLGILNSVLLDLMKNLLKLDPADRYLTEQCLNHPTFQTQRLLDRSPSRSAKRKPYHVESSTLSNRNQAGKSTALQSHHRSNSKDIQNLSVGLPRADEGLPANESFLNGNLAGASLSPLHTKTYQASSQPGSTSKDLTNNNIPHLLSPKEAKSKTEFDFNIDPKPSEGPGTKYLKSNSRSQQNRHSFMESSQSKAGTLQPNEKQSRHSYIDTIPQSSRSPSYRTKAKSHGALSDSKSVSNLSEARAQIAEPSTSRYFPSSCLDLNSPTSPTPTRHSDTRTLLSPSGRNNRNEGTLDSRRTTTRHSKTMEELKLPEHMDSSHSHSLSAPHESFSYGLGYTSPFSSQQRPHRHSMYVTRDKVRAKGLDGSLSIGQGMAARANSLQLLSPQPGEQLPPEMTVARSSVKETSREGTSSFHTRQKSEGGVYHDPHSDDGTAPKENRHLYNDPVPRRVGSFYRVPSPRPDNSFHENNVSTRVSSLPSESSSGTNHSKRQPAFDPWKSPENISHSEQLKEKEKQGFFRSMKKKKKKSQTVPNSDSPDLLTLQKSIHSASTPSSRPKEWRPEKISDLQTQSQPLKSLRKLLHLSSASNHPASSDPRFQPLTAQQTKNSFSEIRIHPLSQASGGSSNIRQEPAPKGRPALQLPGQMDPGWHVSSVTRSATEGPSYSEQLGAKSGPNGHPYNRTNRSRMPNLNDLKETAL

[4] = target: T3, Serine/threonine-protein kinase NLK (Homo sapiens) (UniProt Q9UBE8); experiment: Selectivity interaction (KinomeScan (DiscoverX)) EUB0001049a NLK; conditions: at 1 µM
T3 sequence (whole entry): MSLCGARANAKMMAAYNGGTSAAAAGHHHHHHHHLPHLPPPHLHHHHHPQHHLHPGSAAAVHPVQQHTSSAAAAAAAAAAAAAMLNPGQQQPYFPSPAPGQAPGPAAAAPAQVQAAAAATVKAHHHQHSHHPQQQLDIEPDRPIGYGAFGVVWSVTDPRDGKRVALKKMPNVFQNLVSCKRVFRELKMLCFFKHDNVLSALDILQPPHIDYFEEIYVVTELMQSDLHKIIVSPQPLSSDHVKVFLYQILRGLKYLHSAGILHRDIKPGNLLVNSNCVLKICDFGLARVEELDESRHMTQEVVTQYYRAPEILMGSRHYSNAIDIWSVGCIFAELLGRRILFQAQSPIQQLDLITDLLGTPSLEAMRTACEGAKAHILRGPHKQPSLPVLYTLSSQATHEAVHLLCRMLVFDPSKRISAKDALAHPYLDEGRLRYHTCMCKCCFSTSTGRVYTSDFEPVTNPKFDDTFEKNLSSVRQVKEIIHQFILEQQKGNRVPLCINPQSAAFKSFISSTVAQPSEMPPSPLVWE

[5] = target: MAP kinase-activated protein kinase 2 (Homo sapiens, UniProt P49137); experiment: Selectivity interaction (KinomeScan (DiscoverX)) EUB0000045b MAPKAPK2
[6] = target: Cyclin-dependent kinase 5 (Homo sapiens, UniProt Q00535); experiment: Selectivity interaction (ActivX KiNativ screen (ex vivo kinase selectivity in human PBMCs)) EUB0001619a CDK5; assay type: cell-based; conditions: PBMC, at 1 µM
Sequence of Cyclin-dependent kinase 5 (Q00535 whole entry, looked up): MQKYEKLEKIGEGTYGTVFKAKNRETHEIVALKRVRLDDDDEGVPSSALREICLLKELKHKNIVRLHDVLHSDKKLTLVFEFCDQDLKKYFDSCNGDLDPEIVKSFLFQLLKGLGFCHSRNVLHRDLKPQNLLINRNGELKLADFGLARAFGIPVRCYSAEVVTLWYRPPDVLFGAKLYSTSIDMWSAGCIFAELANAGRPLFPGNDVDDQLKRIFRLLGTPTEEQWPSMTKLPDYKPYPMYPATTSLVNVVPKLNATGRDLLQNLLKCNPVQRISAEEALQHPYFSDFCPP

Sequence of MAP kinase-activated protein kinase 2 (P49137 whole entry, looked up): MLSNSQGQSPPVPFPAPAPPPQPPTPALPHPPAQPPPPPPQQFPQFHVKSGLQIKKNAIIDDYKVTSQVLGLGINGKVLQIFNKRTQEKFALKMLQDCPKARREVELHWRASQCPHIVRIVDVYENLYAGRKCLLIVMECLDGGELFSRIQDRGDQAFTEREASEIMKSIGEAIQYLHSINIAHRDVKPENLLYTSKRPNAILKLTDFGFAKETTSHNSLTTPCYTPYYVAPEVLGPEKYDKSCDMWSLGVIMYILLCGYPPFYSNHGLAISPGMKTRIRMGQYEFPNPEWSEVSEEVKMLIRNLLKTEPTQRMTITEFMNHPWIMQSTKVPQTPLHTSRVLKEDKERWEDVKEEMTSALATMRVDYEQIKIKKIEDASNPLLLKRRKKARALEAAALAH
Sequence of Dual specificity mitogen-activated protein kinase kinase 1 (Q02750 whole entry): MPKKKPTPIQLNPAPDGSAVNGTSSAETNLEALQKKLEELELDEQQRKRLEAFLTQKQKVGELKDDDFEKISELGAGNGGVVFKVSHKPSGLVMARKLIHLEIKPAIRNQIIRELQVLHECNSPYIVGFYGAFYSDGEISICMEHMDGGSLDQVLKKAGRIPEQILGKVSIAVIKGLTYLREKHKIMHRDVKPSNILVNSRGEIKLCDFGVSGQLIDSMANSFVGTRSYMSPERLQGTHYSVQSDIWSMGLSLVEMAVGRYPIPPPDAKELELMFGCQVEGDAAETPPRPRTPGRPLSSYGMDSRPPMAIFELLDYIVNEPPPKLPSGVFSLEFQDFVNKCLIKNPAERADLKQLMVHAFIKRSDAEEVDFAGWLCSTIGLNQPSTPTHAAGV

With `CC(=O)Nc1cccc(-n2c(=O)n(C3CC3)c(=O)c3c(Nc4ccc(I)cc4F)n(C)c(=O)c(C)c32)c1` the Kdapp [1] was 62 nM.
`CC[C@@H]1[C@H](F)C(=O)N[C@@H]1COc1nccc2cc(C(N)=O)c(OC)cc12` [ZIMLOVISERTIB] gave a % of inhibition [2] of 1.3%.
Work on `COc1cc(Nc2nc(C)cc(-c3cnn4nc(OC)ccc34)n2)cc(C(F)(F)F)c1` yielded a % of control [3] of 82% and a % of control [4] of 100%.
`C=CC(=O)Nc1cc(-n2c(=O)ccc3cnc4ccc(-c5ccc(NS(C)(=O)=O)cc5)cc4c32)ccc1C` was tested, and the % of control ([5]; at 1 µM) was 100% and the % of control ([5]; at 10 µM) was 100%.
Compound `N#Cc1cccc(-c2c[nH]c3ncnc(N4CCOCC4)c23)c1` has a % of inhibition [6] of 0%.
